Test results reported in ChEMBL document CHEMBL5052823, “Prc1 inhibitors and methods of treatment therewith” (2020).
Activity calls are given as the source filed them. No cut-off for these calls is given here.

Experiments:
[1] = species: Homo sapiens; assay: Inhibition of RING1B-PCGF1 (unknown origin) activity at 0.4 to 25 uM relative to control; conditions: dose 0.4-25 µM
[2] = species: Homo sapiens; assay: Inhibition of BRCA1-BARD1 (unknown origin) activity at 12.2 to 50 uM relative to control; conditions: dose 12.2-50 µM
[3] = species: Homo sapiens; assay: Inhibition of TRIM37 (unknown origin) activity at 12.2 to 50 uM relative to control; conditions: dose 12.2-50 µM
[4] = species: Homo sapiens; assay: Inhibition of RING1B-BMI1 (unknown origin) interaction with nucleosome at 0.8 to 12.5 uM measured by EMSA assay relative to control; conditions: dose 0.8-12.5 µM
[5] = test system: K562; assay: Inhibition of PRC1 in human K562 cells; type: cell-based
[6] = test system: K562; assay: Inhibition of RING1B-BMI1 H2Aub activity in human K562 cells at 6.2 to 25 uM relative to control; type: cell-based; conditions: dose 6.2-25 µM
[7] = test system: T cell; assay: Inhibition of RING1B-BMI1 H2Aub activity in human TEX cells at 6 to 25 uM relative to control; type: cell-based; conditions: dose 6-25 µM
[8] = test system: T-cell line; assay: Induction on human TEX cells differentiation assessed as reduction in CD34 surface expression at 6 to 25 uM relative to control; type: functional, cell-based; conditions: dose 6-25 µM
[9] = test system: M9-ENL1; assay: Inhibition of colony formation in human M9-ENL1; type: functional, cell-based
[10] = test system: M9-ENL1; assay: Antitumour activity against human M9-ENL1 cells transplanted in mouse assessed as decrease in leukemia development; type: functional, cell-based
[11] = test system: M9-ENL1; assay: Antitumour activity against human M9-ENL1 cells transplanted in mouse assessed as decrease in engraftment; type: functional, cell-based

| inhibition [1] | inhibition [2] | inhibition [3] | inhibition [4] | SMILES | inhibition [5] | inhibition [6] | inhibition [7] | Activity [8] | inhibition [9] | Activity [10] | Activity [11] |
| --- | --- | --- | --- | --- | --- | --- | --- | --- | --- | --- | --- |
| Active | inactive | inactive | Active | CC(C)c1c(-c2cccc3[nH]ccc23)[nH]c(C(=O)O)c1-c1c(Cl)ccc2[nH]ccc12 | Active | Active | Active | Active | Active | Active | Active |
|  |  |  |  | CCc1c(-c2cccc3c2ccn3CCO)[nH]c(C(=O)O)c1-c1ccc(OC)cc1Cl |  |  |  | inactive |  |  |  |
